According to US10689327B2, “Prodrug amino acid derivative” (TAISHO PHARMACEUTICALS CO., LTD., priority 2016, dated 2020):
Counter-ions that a name gives are not always drawn.

Assay: Stability test in solution (pH 1.2 and pH 6.5)
Format: physicochemical
Conditions: 1 hour; for Compound's percent residue (%) pH 6.5: 20 mM phosphate buffer pH 6.5, 37° C.; for Compound's percent residue (%) pH 1.2: hydrochloric acid solution pH 1.2, 37° C.
Experimental: Test 2: Stability Test in Solution
A test to determine the stability of Inventive Compounds (I-A) or (I) in a hydrochloric acid solution (pH 1.2) and 20 mM phosphate buffer (pH 6.5) was conducted in accordance with the following method.
A compound was dissolved in a hydrochloric acid solution (pH 1.2) containing hydrochloric acid and sodium chloride or a 20 mM phosphate buffer (pH 6.5) containing disodium hydrogenphosphate, sodium dihydrogenphosphate and sodium chloride to prepare a solution with a concentration of about 50 ng/mL (near the saturated concentration when the compound was not dissolved). The solution was incubated at 37° C. for 1 hour and the compound's concentration before and after the incubation was quantified by high-performance liquid chromatography to calculate the percent residue of the compound. Compounds having low solubility were assessed as being not applicable.
The percent residues of representative compounds in the hydrochloric acid solution (pH 1.2) and the 20 mM phosphate buffer (pH 6.5) are shown in the following Table 2.

CC(C)CCO[C@@H]1C[C@@H]2[C@H]([C@]1(N)C(=O)O[C@@H](C)OC(=O)C13CC4CC(CC(C4)C1)C3)[C@@]2(F)C(=O)O [Example 29, (1R,2R,3R,5R,6R)-2-amino-6-fluoro-3-(3-methylbutoxy)-2-({(1S)-1-[(tricyclo[3.3.1.1^3,7]decane-1-carbonyl)oxy]ethoxy}carbonyl)bicyclo[3.1.0]nexane-6-carboxylic acid]
Compound's percent residue (%) pH 6.5: 103%
Compound's percent residue (%) pH 1.2: 102%

CCCO[C@@H]1C[C@@H]2[C@H]([C@]1(N)C(=O)O[C@H](C)OC(=O)O[C@@H]1C[C@H](C)CC[C@H]1C(C)C)[C@@]2(F)C(=O)O [Example 14, (1R,2R,3R,5R,6R)-2-Amino-6-fluoro-2-({(1S)-1-[({[(1R,2S,5R)-5-methyl-2-(propan-2-yl)cyclohexyl]oxy}carbonyl)oxy]ethoxy}carbonyl)-3-propoxybicyclo[3.1.0]hexane-6-carboxylic acid]
Compound's percent residue (%) pH 6.5: 97%
Compound's percent residue (%) pH 1.2: 97%

C[C@@H](OC(=O)C12CC3CC(CC(C3)C1)C2)OC(=O)[C@@]1(N)[C@H]2[C@@H](C[C@H]1OCc1ccc(Cl)cn1)[C@]2(F)C(=O)O [Example 26, (1R,2R,3R,5R,6R)-2-amino-3-[(5-chloropyridin-2-yl)methoxy]-6-fluoro-2-({(1S)-1-[(tricyclo[3.3.1.1^3,7]decane-1-carbonyl)oxy]ethoxy}carbonyl)bicyclo[3.1.0]hexane-6-carboxylic acid]
Compound's percent residue (%) pH 6.5: 94%
Compound's percent residue (%) pH 1.2: 97%

C[C@@H](OC(=O)C12CC3CC(CC(C3)C1)C2)OC(=O)[C@@]1(N)[C@H]2[C@@H](C[C@H]1OC1CCCC1)[C@]2(F)C(=O)O [Example 30, (1R,2R,3R,5R,6R)-2-amino-3-(cyclopentyloxy)-6-fluoro-2-({(1S)-1-[(tricyclo[3.3.1.1^3,7]decane-1-carbonyl)oxy]ethoxy}carbonyl)bicyclo[3.1.0]hexane-6-carboxylic acid]
Compound's percent residue (%) pH 6.5: 102%
Compound's percent residue (%) pH 1.2: 100%

CC(C)[C@H](N)C(=O)OCOC(=O)[C@@]1(N)[C@H]2[C@@H](C[C@H]1OCc1ccc(F)cc1)[C@]2(F)C(=O)O [Example 6, (1R,2R,3R,5R,6R)-2-Amino-6-fluoro-3-[(4-fluorophenyl)methoxy]-2-{[(L-valyloxy)methoxy]carbonyl}bicyclo[3.1.0]hexane-6-carboxylic acid dihydrochloride]
Compound's percent residue (%) pH 6.5: 11%
Compound's percent residue (%) pH 1.2: 99%

C[C@@H](OC(=O)C12CC3CC(CC(C3)C1)C2)OC(=O)[C@@]1(N)[C@H]2[C@@H](C[C@H]1OCc1cccc(Cl)n1)[C@]2(F)C(=O)O [Example 24, (1R,2R,3R,5R,6R)-2-amino-3-[(6-chloropyridin-2-yl)methoxy]-6-fluoro-2-({(1S)-1-[(tricyclo[3.3.1.1^3,7]decane-1-carbonyl)oxy]ethoxy}carbonyl)bicyclo[3.1.0]hexane-6-carboxylic acid]
Compound's percent residue (%) pH 6.5: 96%
Compound's percent residue (%) pH 1.2: 95%

CC(OC(=O)OC1CCCCC1)OC(=O)[C@@]1(N)[C@H]2[C@@H](C[C@H]1OCc1ccc(F)cc1)[C@]2(F)C(=O)O (stereo partly drawn) [Example 5, (1R,2R,3R,5R,6R)-2-Amino-2-[(1-{[(cyclohexyloxy)carbonyl]oxy}ethoxy)carbonyl]-6-fluoro-3-[(4-fluorophenyl)methoxy]bicyclo[3.1.0]hexane-6-carboxylic acid]
Compound's percent residue (%) pH 6.5: 98%
Compound's percent residue (%) pH 1.2: 100%

CC(C)[C@@H]1CC[C@@H](C)C[C@H]1OC(=O)O[C@H](C)OC(=O)[C@@]1(N)[C@H]2[C@@H](C[C@H]1OCc1ccc(F)c(F)c1)[C@]2(F)C(=O)O [Example 8, (1R,2R,3R,5R,6R)-2-amino-3-[(3,4-difluorophenyl)methoxy]-6-fluoro-2-({(1R)-1-[({[(1R,2S,5R)-5-methyl-2-(propan-2-yl)cyclohexyl]oxy}carbonyl)oxy]ethoxy}carbonyl)bicyclo[3.1.0]hexane-6-carboxylic acid]
Compound's percent residue (%) pH 1.2: 97%

C[C@@H](OC(=O)C12CC3CC(CC(C3)C1)C2)OC(=O)[C@@]1(N)[C@H]2[C@@H](C[C@H]1OCc1ccc(F)c(F)c1)[C@]2(F)C(=O)O [Example 11, (1R,2R,3R,5R,6R)-2-Amino-3-[(3,4-difluorophenyl)methoxy]-6-fluoro-2-({(1S)-1-[(tricyclo[3.3.1.1^3,7]decane-1-carbonyl)oxy]ethoxy}carbonyl)bicyclo[3.1.0]hexane-6-carboxylic acid]
Compound's percent residue (%) pH 6.5: 95%
Compound's percent residue (%) pH 1.2: 96%

CCCO[C@@H]1C[C@@H]2[C@H]([C@]1(N)C(=O)O[C@@H](C)OC(=O)O[C@@H]1C[C@H](C)CC[C@H]1C(C)C)[C@@]2(F)C(=O)O [Example 13, (1R,2R,3R,5R,6R)-2-amino-6-fluoro-2-({(1R)-1-[({[(1R,2S,5R)-5-methyl-2-(propan-2-yl)cyclohexyl]oxy}carbonyl)oxy]ethoxy}carbonyl)-3-propoxybicyclo[3.1.0]hexane-6-carboxylic acid]
Compound's percent residue (%) pH 6.5: 98%
Compound's percent residue (%) pH 1.2: 98%

CC(OC(=O)O[C@H]1C[C@H]2CC[C@]1(C)C2(C)C)OC(=O)[C@@]1(N)[C@H]2[C@@H](C[C@H]1OCc1ccc(F)cc1)[C@]2(F)C(=O)O (single isomer, unassigned) [Example 19-B]
Compound's percent residue (%) pH 6.5: 106%
Compound's percent residue (%) pH 1.2: 100%

CC(C)[C@@H]1CC[C@@H](C)C[C@H]1OC(=O)O[C@H](C)OC(=O)[C@@]1(N)[C@H]2[C@@H](C[C@H]1OCc1ccc(F)cc1)[C@@H]2C(=O)O [Example 39, (1S,2R,3R,5R,6S)-2-amino-3-[(4-fluorophenyl)methoxy]-2-({(1R)-1-[({[(1R,2S,5R)-5-methyl-2-(propan-2-yl)cyclohexyl]oxy}carbonyl)oxy]ethoxy}carbonyl)bicyclo[3.1.0]hexane-6-carboxylic acid]
Compound's percent residue (%) pH 1.2: 97%

C[C@H](OC(=O)C12CC3CC(CC(C3)C1)C2)OC(=O)[C@@]1(N)[C@H]2[C@@H](C[C@H]1OCc1ccc(F)c(F)c1)[C@]2(F)C(=O)O [Example 10, (1R,2R,3R,5R,6R)-2-Amino-3-[(3,4-difluorophenyl)methoxy]-6-fluoro-2-({(1R)-1-[(tricyclo[3.3.1.1^3,7]decane-1-carbonyl)oxy]ethoxy}carbonyl)bicyclo[3.1.0]hexane-6-carboxylic acid]
Compound's percent residue (%) pH 6.5: 107%
Compound's percent residue (%) pH 1.2: 104%

CC(C)(C)C(=O)OCOC(=O)[C@@]1(N)[C@H]2[C@@H](C[C@H]1OCc1ccc(F)cc1)[C@]2(F)C(=O)O [Example 35, (1R,2R,3R,5R,6R)-2-amino-2-({[(2,2-dimethylpropanoyl)oxy]methoxy}carbonyl)-6-fluoro-3-[(4-fluorophenyl)methoxy]bicyclo[3.1.0]hexane-6-carboxylic acid]
Compound's percent residue (%) pH 6.5: 97%
Compound's percent residue (%) pH 1.2: 100%

CC(C)[C@@H]1CC[C@@H](C)C[C@H]1OC(=O)O[C@@H](C)OC(=O)[C@@]1(N)[C@H]2[C@@H](C[C@H]1OCc1ccc(F)c(F)c1)[C@]2(F)C(=O)O [Example 9, (1R,2R,3R,5R,6R)-2-Amino-3-[(3,4-difluorophenyl)methoxy]-6-fluoro-2-({(1S)-1-[({[(1R,2S,5R)-5-methyl-2-(propan-2-yl)cyclohexyl]oxy}carbonyl)oxy]ethoxy}carbonyl)bicyclo[3.1.0]hexane-6-carboxylic acid]
Compound's percent residue (%) pH 6.5: 116%
Compound's percent residue (%) pH 1.2: 115%

CCCO[C@@H]1C[C@@H]2[C@H]([C@]1(N)C(=O)OC(C)OC(=O)O[C@@H]1C[C@@H]3CC[C@@]1(C)C3(C)C)[C@@]2(F)C(=O)O (single isomer, unassigned) [Example 18-A]
Compound's percent residue (%) pH 6.5: 103%
Compound's percent residue (%) pH 1.2: 107%

C[C@@H](OC(=O)C12CC3CC(CC(C3)C1)C2)OC(=O)[C@@]1(N)[C@H]2[C@@H](C[C@H]1OCc1ccc(F)cc1)[C@]2(F)C(=O)O [Example 4, (1R,2R,3R,5R,6R)-2-Amino-6-fluoro-3-[(4-fluorophenyl)methoxy]-2-({(1S)-1-[(tricyclo[3.3.1.1^3,7]decane-1-carbonyl)oxy]ethoxy}carbonyl)bicyclo[3.1.0]hexane-6-carboxylic acid]
Compound's percent residue (%) pH 6.5: 98%
Compound's percent residue (%) pH 1.2: 98%

C[C@@H](OC(=O)C12CC3CC(CC(C3)C1)C2)OC(=O)[C@@]1(N)[C@H]2[C@@H](C[C@H]1OCc1ccc(C(F)(F)F)cc1)[C@]2(F)C(=O)O [Example 22, (1R,2R,3R,5R,6R)-2-amino-6-fluoro-2-({(1S)-1-[(tricyclo[3.3.1.1^3,7]decane-1-carbonyl)oxy]ethoxy}carbonyl)-3-{[4-(trifluoromethyl)phenyl]methoxy}bicyclo[3.1.0]hexane-6-carboxylic acid]
Compound's percent residue (%) pH 6.5: 94%
Compound's percent residue (%) pH 1.2: 96%

CCCO[C@@H]1C[C@@H]2[C@H]([C@]1(N)C(=O)OC(C)OC(=O)O[C@@H]1C[C@@H]3CC[C@@]1(C)C3(C)C)[C@@]2(F)C(=O)O (stereo partly drawn) [Example 18-B, (1R,2R,3R,5R,6R)-2-Amino-6-fluoro-3-propoxy-2-({1-[({[(1S,2R,4S)-1,7,7-trimethylbicyclo[2.2.1]heptan-2-yl]oxy}carbonyl)oxy]ethoxy}carbonyl)bicyclo[3.1.0]hexane-6-carboxylic acid]
Compound's percent residue (%) pH 6.5: 112%
